Measurements as given in paper PMC3198815 (PLoS ONE, 2011).

Target: T1, xoFabV (Xanthomonas oryzae, UniProt Q2P9J6)
T1 construct: gene fabV
Conditions: weak binding, data not shown; no electron density in co-crystals

T1 sequence (Q2P9J6 whole entry, looked up): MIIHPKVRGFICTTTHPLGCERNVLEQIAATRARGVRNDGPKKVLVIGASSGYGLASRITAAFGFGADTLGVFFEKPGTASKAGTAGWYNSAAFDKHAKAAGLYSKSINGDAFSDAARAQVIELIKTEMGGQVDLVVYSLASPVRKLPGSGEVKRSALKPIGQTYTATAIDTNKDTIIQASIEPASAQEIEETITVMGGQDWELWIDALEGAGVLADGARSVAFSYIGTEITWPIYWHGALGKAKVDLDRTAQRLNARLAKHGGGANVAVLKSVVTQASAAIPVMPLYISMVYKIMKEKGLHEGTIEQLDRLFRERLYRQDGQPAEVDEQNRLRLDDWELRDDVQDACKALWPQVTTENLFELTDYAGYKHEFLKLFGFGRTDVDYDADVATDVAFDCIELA

With NC(=O)c1ccc[n+]([C@@H]2O[C@H](COP(=O)(O)OP(=O)(O)OC[C@H]3O[C@@H](n4cnc5c(N)ncnc54)[C@H](O)[C@@H]3O)[C@@H](O)[C@H]2O)c1 [NAD^+] the isothermal titration calorimetry was “NAD^+ binds weakly to xoFabV according to isothermal titration calorimetry assay (data not shown)”.
